Consider 17 compounds from ChEMBL document CHEMBL4610050, “Development of novel NLRP3-XOD dual inhibitors for the treatment of gout” (Bioorg Med Chem Lett, 2020).

The structures appear in SMILES notation. Activity calls are given as the source filed them. The rule behind the calls is not given here.

Data set [1] deals with T1, Xanthine dehydrogenase/oxidase (Homo sapiens, UniProt P47989). Put plainly: Inhibition of xanthine oxidase (unknown origin).
In data set [2] the test system is Mus musculus. Kind of data set: Antiarthritic activity in potassium oxonate-induced hyperuricemia mouse model assessed as reduction in uric acid level in serum at 10 mg/kg. In kind it is functional, organism-based.
For data set [3], the system named is Mus musculus. Kind of data set: In vivo inhibition of xanthine oxidase in mouse assessed as reduction in enzyme activity in liver at 10 mg/kg relative to control. The class given is functional.
Data set [4] has as its system Mus musculus. Put plainly: In vivo inhibition of xanthine oxidase in potassium oxonate-induced hyperuricemia mouse model assessed as reduction enzyme activity in liver at 10 mg/kg relative to control. In kind it is functional.
Data set [5] concerns the target NACHT, LRR and PYD domains-containing protein 3 (Homo sapiens, UniProt Q96P20). Put plainly: Inhibition of NLRP3 in human THP1 cells assessed as inhibition of MSU-induced IL-1beta production. The class given is cell-based, THP-1.
Data set [6] can be described thus: Cytotoxicity against human THP-1 cells. The class given is cell-based.
The species entered for data set [7] is Rattus norvegicus. Kind of data set: Antiarthritic activity against MSU-induced acute gout arthritis rat model assessed as degree of ankle joint swelling after 4 hrs (reference value: 8.8 +/- 1.7). The class given is functional.
Data set [8] has as its system Rattus norvegicus. Put plainly: Inhibition of MSU-induced ASC protein expression in synovial tissue of MSU-induced acute gout arthritis rat model at 10 mg/kg by western blot analysis. In kind it is functional, organism-based. In general terms: A western blot detects proteins with antibodies after separation by electrophoresis.
The species entered for data set [9] is Rattus norvegicus. Put plainly: Antiarthritic activity in rat at model of acute gout arthritis assessed as effect on MSU-induced ankle joint swelling after 24 hrs (reference value: 5.6 +/- 1.8). The class given is functional.
Data set [10] is filed under the species Rattus norvegicus. Put plainly: Antiarthritic activity against MSU-induced acute gout arthritis rat model assessed as degree of ankle joint swelling after 8 hrs (reference value: 7.8 +/- 1.6). The class given is functional.
Data set [11] is filed under the species Rattus norvegicus. Kind of data set: Antiarthritic activity against MSU-induced acute gout arthritis rat model assessed as degree of ankle joint swelling after 24 hrs (reference value: 5.6 +/- 1.8). The class given is functional.
Data set [12] concerns Rattus norvegicus. Kind of data set: Inhibition of MSU-induced NLRP3 protein expression in synovial tissue of MSU-induced acute gout arthritis rat model at 10 mg/kg by western blot analysis. The class given is functional, organism-based.
For data set [13], the species on record is Rattus norvegicus. Kind of data set: Antiarthritic activity against MSU-induced acute gout arthritis rat model assessed as degree of ankle joint swelling after 48 hrs (reference value: 3.4 +/- 0.5). In kind it is functional.
Data set [14] is filed under the species Rattus norvegicus. Kind of data set: Antiarthritic activity against MSU-induced acute gout arthritis rat model assessed as degree of ankle joint swelling after 2 hrs (reference value: 7.5 +/- 1.6). In kind it is functional.
The test system of data set [15] is Rattus norvegicus. Put plainly: Inhibition of MSU-induced caspase-1 protein expression in synovial tissue of MSU-induced acute gout arthritis rat model at 10 mg/kg by western blot analysis. In kind it is functional, organism-based.
Data set [16] concerns Mus musculus. Put plainly: In vivo inhibition of xanthine oxidase in potassium oxonate-induced hyperuricemia mouse model assessed as reduction in enzyme activity in liver at 20 mg/kg relative to control. In kind it is functional.
Data set [17] has as its system Rattus norvegicus. Put plainly: Antiarthritic activity against MSU-induced acute gout arthritis rat model assessed as degree of ankle joint swelling at 20 mg/kg after 8 hrs (reference value: 7.8 +/- 1.6). The class given is functional.
The subject of data set [18] is Mus musculus. Kind of data set: In vivo inhibition of xanthine oxidase in potassium oxonate-induced hyperuricemia mouse model assessed as reduction in enzyme activity in liver at 5 mg/kg relative to control. The class given is functional.
For data set [19], the system named is Rattus norvegicus. Kind of data set: Antiarthritic activity against MSU-induced acute gout arthritis rat model assessed as degree of ankle joint swelling at 10 mg/kg after 24 hrs (reference value: 5.6 +/- 1.8). In kind it is functional.
The subject of data set [20] is Mus musculus. Kind of data set: In vivo inhibition of xanthine oxidase in mouse assessed as reduction of enzyme activity in liver at 5 mg/kg relative to control. The class given is functional.
Data set [21] deals with Rattus norvegicus. Kind of data set: Antiarthritic activity against MSU-induced acute gout arthritis rat model assessed as degree of ankle joint swelling at 10 mg/kg after 12 hrs (reference value: 6.6 +/- 1.5). In kind it is functional.
In data set [22] the test system is Rattus norvegicus. Put plainly: Antiarthritic activity against MSU-induced acute gout arthritis rat model assessed as degree of ankle joint swelling at 5 mg/kg after 24 hrs (reference value: 5.6 +/- 1.8). The class given is functional.
Data set [23] has as its system Rattus norvegicus. Kind of data set: Antiarthritic activity against MSU-induced acute gout arthritis rat model assessed as degree of ankle joint swelling at 10 mg/kg after 4 hrs (reference value: 8.8 +/- 1.7). The class given is functional.
Data set [24] has as its system Rattus norvegicus. Put plainly: Antiarthritic activity against MSU-induced acute gout arthritis rat model assessed as degree of ankle joint swelling at 10 mg/kg after 48 hrs (reference value: 3.4 +/- 0.5). In kind it is functional.
Data set [25] has as its system Mus musculus. Put plainly: Antiarthritic activity in potassium oxonate-induced hyperuricemia mouse model assessed as reduction in uric acid level in serum at 5 to 20 mg/kg. In kind it is functional, organism-based.
The species named for data set [26] is Rattus norvegicus. Put plainly: Down regulation of MSU-induced NLRP3 protein expression in synovial tissue of MSU-induced acute gout arthritis rat model by western blot analysis. The class given is functional, organism-based.
In data set [27] the test system is Rattus norvegicus. Kind of data set: Antiarthritic activity against MSU-induced acute gout arthritis rat model assessed as degree of ankle joint swelling at 20 mg/kg after 2 hrs (reference value: 7.5 +/- 1.6). In kind it is functional.
The species entered for data set [28] is Rattus norvegicus. Kind of data set: Down regulation of MSU-induced caspase-1 protein expression in synovial tissue of MSU-induced acute gout arthritis rat model by western blot analysis. The class given is functional, organism-based.
For data set [29], the system named is Rattus norvegicus. Put plainly: Antiarthritic activity against MSU-induced acute gout arthritis rat model assessed as degree of ankle joint swelling at 5 mg/kg after 4 hrs (reference value: 8.8 +/- 1.7). In kind it is functional.
In data set [30] the test system is Rattus norvegicus. Kind of data set: Antiarthritic activity against MSU-induced acute gout arthritis rat model assessed as degree of ankle joint swelling at 10 mg/kg after 2 hrs (reference value: 7.5 +/- 1.6). The class given is functional.
The species named for data set [31] is Rattus norvegicus. Kind of data set: Down regulation of MSU-induced ASC protein expression in synovial tissue of MSU-induced acute gout arthritis rat model by western blot analysis. In kind it is functional, organism-based.
Data set [32] has as its system Mus musculus. Put plainly: In vivo inhibition of xanthine oxidase in mouse assessed as reduction in enzyme activity in liver at 20 mg/kg relative to control. The class given is functional.
The subject of data set [33] is Rattus norvegicus. Put plainly: Antiarthritic activity against MSU-induced acute gout arthritis rat model assessed as degree of ankle joint swelling at 20 mg/kg after 12 hrs (reference value: 6.6 +/- 1.5). In kind it is functional.
Data set [34] relates to Rattus norvegicus. Put plainly: Antiarthritic activity against MSU-induced acute gout arthritis rat model assessed as degree of ankle joint swelling at 20 mg/kg after 4 hrs (reference value: 8.8 +/- 1.7). The class given is functional.
For data set [35], the system named is Rattus norvegicus. Put plainly: Antiarthritic activity against MSU-induced acute gout arthritis rat model assessed as degree of ankle joint swelling at 5 mg/kg after 2 hrs (reference value: 7.5 +/- 1.6). The class given is functional.
Data set [36] concerns Rattus norvegicus. Put plainly: Antiarthritic activity against MSU-induced acute gout arthritis rat model assessed as degree of ankle joint swelling at 5 mg/kg after 48 hrs (reference value: 3.4 +/- 0.5). In kind it is functional.
The target of data set [37] is T1, Xanthine dehydrogenase/oxidase. Kind of data set: Competitive inhibition of xanthine oxidase (unknown origin) by Lineweaver-Burk plot analysis.
In data set [38] the test system is Rattus norvegicus. Put plainly: Antiarthritic activity against MSU-induced acute gout arthritis rat model assessed as degree of ankle joint swelling at 20 mg/kg after 24 hrs (reference value: 5.6 +/- 1.8). The class given is functional.
For data set [39], the system named is Rattus norvegicus. Kind of data set: Antiarthritic activity against MSU-induced acute gout arthritis rat model assessed as degree of ankle joint swelling at 5 mg/kg after 12 hrs (reference value: 6.6 +/- 1.5). In kind it is functional.
Data set [40] concerns Rattus norvegicus. Put plainly: Antiarthritic activity against MSU-induced acute gout arthritis rat model assessed as degree of ankle joint swelling at 5 mg/kg after 8 hrs (reference value: 7.8 +/- 1.6). The class given is functional.
Data set [41] has as its system Rattus norvegicus. Put plainly: Antiarthritic activity against MSU-induced acute gout arthritis rat model assessed as degree of ankle joint swelling at 10 mg/kg after 8 hrs (reference value: 7.8 +/- 1.6). In kind it is functional.
In data set [42] the test system is Rattus norvegicus. Kind of data set: Antiarthritic activity against MSU-induced acute gout arthritis rat model assessed as degree of ankle joint swelling at 20 mg/kg after 48 hrs (reference value: 3.4 +/- 0.5). In kind it is functional.

T1 sequence (P47989 whole entry): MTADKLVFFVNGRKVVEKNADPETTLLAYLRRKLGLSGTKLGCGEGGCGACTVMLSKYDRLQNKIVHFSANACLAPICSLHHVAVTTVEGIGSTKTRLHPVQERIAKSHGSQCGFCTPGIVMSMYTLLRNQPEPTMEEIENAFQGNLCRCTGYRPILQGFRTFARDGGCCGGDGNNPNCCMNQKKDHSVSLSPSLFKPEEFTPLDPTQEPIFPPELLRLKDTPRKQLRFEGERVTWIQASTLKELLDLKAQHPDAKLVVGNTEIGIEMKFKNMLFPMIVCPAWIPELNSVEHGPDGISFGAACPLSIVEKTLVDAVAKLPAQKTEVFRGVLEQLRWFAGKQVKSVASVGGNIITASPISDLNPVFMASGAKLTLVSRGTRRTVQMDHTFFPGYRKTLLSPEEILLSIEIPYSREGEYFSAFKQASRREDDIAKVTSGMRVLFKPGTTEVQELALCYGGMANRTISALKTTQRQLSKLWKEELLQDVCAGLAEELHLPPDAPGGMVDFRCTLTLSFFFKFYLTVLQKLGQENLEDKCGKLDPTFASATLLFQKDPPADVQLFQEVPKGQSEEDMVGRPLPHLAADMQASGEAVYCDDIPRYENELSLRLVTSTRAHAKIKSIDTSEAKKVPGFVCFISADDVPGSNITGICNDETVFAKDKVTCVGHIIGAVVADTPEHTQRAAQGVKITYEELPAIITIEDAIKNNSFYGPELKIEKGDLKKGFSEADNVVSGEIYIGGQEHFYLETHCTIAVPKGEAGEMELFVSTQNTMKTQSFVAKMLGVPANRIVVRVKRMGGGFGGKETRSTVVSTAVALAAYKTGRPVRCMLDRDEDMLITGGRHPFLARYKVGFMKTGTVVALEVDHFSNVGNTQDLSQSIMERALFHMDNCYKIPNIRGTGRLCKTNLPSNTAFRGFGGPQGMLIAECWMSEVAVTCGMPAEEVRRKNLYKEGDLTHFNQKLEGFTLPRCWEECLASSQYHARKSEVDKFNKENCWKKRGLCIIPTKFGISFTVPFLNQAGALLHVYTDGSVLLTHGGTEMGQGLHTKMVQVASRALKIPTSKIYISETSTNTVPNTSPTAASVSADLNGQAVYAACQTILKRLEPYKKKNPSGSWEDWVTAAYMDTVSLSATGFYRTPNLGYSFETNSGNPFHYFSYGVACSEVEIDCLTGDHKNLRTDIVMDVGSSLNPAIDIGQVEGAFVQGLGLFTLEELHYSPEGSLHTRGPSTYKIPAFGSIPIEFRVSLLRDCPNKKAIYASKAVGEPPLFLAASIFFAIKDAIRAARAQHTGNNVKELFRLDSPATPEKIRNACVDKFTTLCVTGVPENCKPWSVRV
NACHT, LRR and PYD domains-containing protein 3, sequence (Q96P20 whole entry, the tested form may be a part): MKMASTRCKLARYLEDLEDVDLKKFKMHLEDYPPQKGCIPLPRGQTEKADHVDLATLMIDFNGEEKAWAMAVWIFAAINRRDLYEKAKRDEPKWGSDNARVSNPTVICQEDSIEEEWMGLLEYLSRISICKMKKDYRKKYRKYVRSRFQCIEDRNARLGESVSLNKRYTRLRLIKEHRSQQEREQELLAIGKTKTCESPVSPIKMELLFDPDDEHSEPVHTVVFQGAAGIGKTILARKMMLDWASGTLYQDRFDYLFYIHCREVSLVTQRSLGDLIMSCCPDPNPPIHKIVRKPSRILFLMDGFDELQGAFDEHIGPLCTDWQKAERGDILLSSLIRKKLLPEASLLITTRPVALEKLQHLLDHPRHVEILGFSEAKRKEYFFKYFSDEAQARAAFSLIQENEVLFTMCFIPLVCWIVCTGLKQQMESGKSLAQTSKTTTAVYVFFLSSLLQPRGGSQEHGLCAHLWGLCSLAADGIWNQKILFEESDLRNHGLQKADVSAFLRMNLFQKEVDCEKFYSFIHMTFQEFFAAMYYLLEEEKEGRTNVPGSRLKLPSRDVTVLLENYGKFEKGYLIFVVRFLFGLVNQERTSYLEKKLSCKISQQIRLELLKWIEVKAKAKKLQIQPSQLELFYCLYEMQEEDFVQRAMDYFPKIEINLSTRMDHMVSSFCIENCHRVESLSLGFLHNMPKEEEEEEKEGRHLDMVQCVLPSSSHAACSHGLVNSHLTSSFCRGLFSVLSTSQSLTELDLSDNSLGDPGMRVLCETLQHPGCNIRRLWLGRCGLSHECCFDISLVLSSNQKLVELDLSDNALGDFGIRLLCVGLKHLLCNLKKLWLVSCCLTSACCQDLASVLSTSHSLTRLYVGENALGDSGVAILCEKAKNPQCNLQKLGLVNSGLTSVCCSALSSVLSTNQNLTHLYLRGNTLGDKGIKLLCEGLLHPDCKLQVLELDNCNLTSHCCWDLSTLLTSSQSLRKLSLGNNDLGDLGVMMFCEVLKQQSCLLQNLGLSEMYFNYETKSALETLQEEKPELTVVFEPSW

Regarding `COc1ccc(C(=O)O/N=C(\C)c2nc3ccccc3[nH]2)cc1`, the IC50 (usually the concentration that inhibits the measured activity by half) in [1] is over 50 µM.
The same measure, in the same setting: with `C/C(=N\NS(=O)(=O)c1ccccc1)c1nc2ccccc2[nH]1` the figure was over 50 µM.
`C/C(=N\NS(=O)(=O)c1ccccc1)c1nc2ccccc2o1` returned an IC50 in data set [1] of over 50 µM.
`C/C(=N\OC(=O)Cc1ccccc1)c1nc2ccccc2[nH]1`: the IC50 in data set [1] is over 50 µM.
On the same count and under the same terms, with `COc1ccc(S(=O)(=O)N/N=C(\C)c2nc3ccccc3[nH]2)cc1` the figure was over 50 µM; with `C/C(=N\NS(=O)(=O)c1cccc([N+](=O)[O-])c1)c1nc2ccccc2o1`, over 50 µM.
In data set [1], `C/C(=N\NS(=O)(=O)c1ccc(Br)cc1)c1nc2ccccc2o1` had an IC50 of over 50 µM.
Same read-out and setting: as for `CCCS(=O)(=O)N/N=C(\C)c1nc2ccccc2[nH]1`, the figure is over 50 µM.
On to `Oc1ncnc2[nH]ncc12` [ALLOPURINOL], for which, in [2], the outcome was Active. Further, the inhibition in vivo (commonly how much of the control response was suppressed) at 10 mg/kg is 25.3% in [3] and 47.9% in data set [4].
On to `C/C(=N\NS(=O)(=O)c1ccc(Br)cc1)c1nc2ccccc2[nH]1`, for which the IC50 in data set [1] is over 50 µM.
For the compound `O=C(/C=C/c1ccc(O)cc1)c1ccc(O)cc1O` [ISOLIQUIRITIGENIN], the IC50 in [5] came out at 10.1 µM. Also, in data set [6], the midpoint of cytotoxicity, the CC50, lay at 250 µM.
As for `COc1cc2c(c(OC)c1OC)-c1ccc(OC)c(=O)cc1[C@@H](NC(C)=O)CC2` [COLCHICINE], the Activity was found to be 4.3 in data set [7]; 2.8 in [9]; 4 in data set [10]; 3.5 in data set [11]; 2 in data set [13]; 4.9 in data set [14]. Further, the inhibition result in data set [8], in [12] and in data set [15] was “Active” in each case.
In the case of `C/C(=N\NS(=O)(=O)c1ccc(C)cc1)c1nc2ccccc2o1`, in data set [6], the midpoint of cytotoxicity, the CC50, lay at 250 µM.
`COc1ccc(S(=O)(=O)N/N=C(\C)c2nc3ccccc3o2)cc1`: the inhibition in vivo at 20 mg/kg in data set [16] was 44.1%; in [32], 7.6%. The Activity in data set [17] turned out to be 4.2; in data set [19] it was 2.5; in [21] it was 4.5; in [22], 4.9; in [23] it was 6.1; in data set [24], 1.8. Also, the Activity in data set [27] came out at 5.5; in data set [29] it was 6.8; in data set [30], 6; in data set [33], 3.9; in data set [34], 5; in [35], 6.5. The Activity in [36] is listed as 2.9; in [38], 2.2; in [39] it was 6; in data set [40], 5.9; in [41], 5.4; in data set [42], 1.6. Moreover, the inhibition in vivo at 5 mg/kg in data set [18] was 19.6%; in data set [20] it was 3.6%. In addition, the result in data set [25] was Active. The inhibition result in data set [26], in [28] and in [31] was “Dose-dependent effect” in each case. The inhibition in vivo at 10 mg/kg in data set [3] worked out at 4.6%; in [4] it was 30.6%. Also, the results for the IC50 in data set [1] and in [5] were 4.2 µM and 7.5 µM, respectively. Besides, in [6], the CC50 – broadly, the concentration that lowers cell viability or growth by half – worked out at 250 µM. The “inhibition (INH)” value in data set [37] was “Active”.
`CCCCS(=O)(=O)N/N=C(\C)c1nc2ccccc2o1`: the IC50 in data set [1] is over 50 µM.
Turning to `C/C(=N\NS(=O)(=O)c1ccc([N+](=O)[O-])cc1)c1nc2ccccc2[nH]1`, the concentration for half-maximal inhibition (IC50) in data set [1] is over 50 µM.
On the same count and under the same terms, with `C/C(=N\NS(=O)(=O)c1ccc([N+](=O)[O-])cc1)c1nc2ccccc2o1` the figure was over 50 µM.
